# Assay results taken from PubChem BioAssay AID2060902 (Molecular Pharmacology Branch, DTP, NCI, 2025).
# System: 485368-065-R3-J5-PDC spheroids with HUVEC/MSC, viability
# Assay: Anticancer human tumor 485368-065-R3-J5-PDC patient-derived pancreatic carcinoma cell line growth inhibition [RAS]
# Details: for IC50: curve of first compound; for viability, T/C: stronger effect = lower value
# Method in brief: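 Tumour cells grown as complex spheroids with HUVEC endothelial cells and mesenchymal stem cells, treated with RAS pathway inhibitor combinations. Each agent spans half-log steps from near clinical Cmax, or 10 microM where Cmax is unknown.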
# 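Further: spheroids exposed to agents for seven days before readout.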
structure (smiles),measurement,setting,value
CC(Nc1ccc2c(c1)OCCn1cc(N3C(=O)OCC3C(F)F)nc1-2)C(N)=O (configuration not stated) + C#Cc1c(F)ccc2cc(O)cc(-c3ncc4c(N5CC6CCC(C5)N6)nc(OCC56CCCN5CC(F)C6)nc4c3F)c12,IC50,second compound 0.0316 µM,> 10 µM
same,IC50,second compound 0.1 µM,> 10 µM
same,IC50,second compound 0.316 µM,9.82 µM
same,IC50,second compound 1 µM,> 10 µM
same,IC50,second compound 3.16 µM,1.61 µM
same,IC50,second compound 10 µM,< 0.0316 µM
same,"viability, T/C","second compound 0.0316 µM, first compound 0.0316 µM",95.9%
same,"viability, T/C","second compound 0.0316 µM, first compound 0.1 µM",93.4%
same,"viability, T/C","second compound 0.0316 µM, first compound 0.316 µM",85.4%
same,"viability, T/C","second compound 0.0316 µM, first compound 1 µM",80.1%
same,"viability, T/C","second compound 0.0316 µM, first compound 3.16 µM",74.5%
same,"viability, T/C","second compound 0.0316 µM, first compound 10 µM",51.9%
same,"viability, T/C","second compound 0.1 µM, first compound 0.0316 µM",101%
same,"viability, T/C","second compound 0.1 µM, first compound 0.1 µM",90.3%
same,"viability, T/C","second compound 0.1 µM, first compound 0.316 µM",82.4%
same,"viability, T/C","second compound 0.1 µM, first compound 1 µM",91.2%
same,"viability, T/C","second compound 0.1 µM, first compound 3.16 µM",77.9%
same,"viability, T/C","second compound 0.1 µM, first compound 10 µM",57.2%
same,"viability, T/C","second compound 0.316 µM, first compound 0.0316 µM",92.7%
same,"viability, T/C","second compound 0.316 µM, first compound 0.1 µM",93.5%
same,"viability, T/C","second compound 0.316 µM, first compound 0.316 µM",91.5%
same,"viability, T/C","second compound 0.316 µM, first compound 1 µM",85.7%
same,"viability, T/C","second compound 0.316 µM, first compound 3.16 µM",81.7%
same,"viability, T/C","second compound 0.316 µM, first compound 10 µM",48.8%
same,"viability, T/C","second compound 1 µM, first compound 0.0316 µM",83.4%
same,"viability, T/C","second compound 1 µM, first compound 0.1 µM",85.8%
same,"viability, T/C","second compound 1 µM, first compound 0.316 µM",90.7%
same,"viability, T/C","second compound 1 µM, first compound 1 µM",72.6%
same,"viability, T/C","second compound 1 µM, first compound 3.16 µM",69.1%
same,"viability, T/C","second compound 1 µM, first compound 10 µM",51.5%
same,"viability, T/C","second compound 3.16 µM, first compound 0.0316 µM",73.4%
same,"viability, T/C","second compound 3.16 µM, first compound 0.1 µM",56.2%
same,"viability, T/C","second compound 3.16 µM, first compound 0.316 µM",54.5%
same,"viability, T/C","second compound 3.16 µM, first compound 1 µM",60.5%
same,"viability, T/C","second compound 3.16 µM, first compound 3.16 µM",46.8%
same,"viability, T/C","second compound 3.16 µM, first compound 10 µM",32.8%
same,"viability, T/C","second compound 10 µM, first compound 0.0316 µM",33.8%
same,"viability, T/C","second compound 10 µM, first compound 0.1 µM",31%
same,"viability, T/C","second compound 10 µM, first compound 0.316 µM",24.6%
same,"viability, T/C","second compound 10 µM, first compound 1 µM",25.9%
same,"viability, T/C","second compound 10 µM, first compound 3.16 µM",21%
same,"viability, T/C","second compound 10 µM, first compound 10 µM",18.6%
